Laboratory results reported in US7973079B2, “Methods and compounds for treating retinol-related diseases” (Revision Therapeutics, Inc., priority 2007, dated 2011).

How the values were obtained:
RBP4-TTR interaction = RBP4-TTR interaction (Homo sapiens, UniProt P02753); assay: High throughput in vitro assay detecting inhibition of RBP-TTR interaction; assay type: binding; conditions: Table 1, read-out: Apparent 50 IC
Description: In some embodiments, the modulators disclosed herein are also used in in vitro assays for detecting perturbations in RBP or TTR activity. For example, the modulator is added to a sample comprising RBP, TTR and retinol to detect complex disruption. A component, for example, RBP, TTR, retinol or the modulator, is labeled to determine if disruption of complex formation occurs. For example, complex formation and subsequent disruption is detected and/or measured through conventional means, such as the sandwich assays disclosed above. Other detection systems are also used to detect modulation of RBP or TTR binding, for example, FRET detection of RBP-TTR-retinol complex formation.
The optimal dose of compounds of Formula (I) or (II) to block formation of A2E in abca4-1 mice is determined using a standard dose escalation study. In order to determine the range of doses which will be employed, a high throughput, in vitro assay which detects modulators that inhibit RBP-TTR interaction has been developed. […] An illustrative in vivo approach, utilizing a compound having the structure of Formula (I) or (II) is presented below.

[1] = system: panel of six cytochrome P450 isozymes; assay: Cytochrome P450 inhibition profile (panel of six isozymes); assay type: in vitro ADME
RBP4+/+, ABCA4−/− mice = assay: Serum retinol in HPR-treated mice compared with genetic reduction of RBP4; assay type: in vivo; conditions: HPR for a 28-day period, ABCA4+/− mice (>50% reduction)
Excerpt: FIG. 6. Genetic modulation of RBP4 in abca4 mutant mice: effects on serum retinol, RBP4 and toxic retinal fluorophores. A line of mice which expresses heterozygous mutations in RBP4 and ABCA4 (RBP4+/−, ABCA4+/−) was generated in order to determine if genetic reduction of RBP4 would be sufficient to reduce serum levels of retinol, RBP4 and toxic retinal fluorophores within the RPE. Serum retinol concentrations in RBP4+/−, ABCA4+/− mice were reduced by greater than 50% compared to mice with the normal complement of RBP (RBP4+/+, ABCA4−/−). […] Reductions in serum retinol correlated directly with reductions in RBP4, as determined by immunoblot analysis. Western blot identification of RBP4 in the various mouse lines is shown in panel B. Histological analysis were also performed. Tissue sections from RBP4+/+, ABCA4+/− mice (panel C), RBP4+/−, ABCA4+/− (panel D) and RBP4+/+, ABCA4+/+ (panel E) were analyzed by fluorescence microscopy.
Exploration of a non-pharmacological means of reducing lipofuscin fluorophores in order to validate our therapeutic approach based upon reduction of RBP levels in a patient will be performed. In this study, RBP protein levels will be reduced through genetic manipulation. Two new lines of mice expressing heterozygous mutations in retinol binding protein (RBP4) are generated. […]

IC50 (RBP4-TTR interaction) [nM] | inhibition at 2 μM [1] [%] | Structure (SMILES) | degree of serum retinol reduction (RBP4+/+, ABCA4−/− mice)
400 | < 10 | CC(C)(C)c1cc(Cl)ccc1OCC1CCC(C(=O)O)C1 (centres unmarked) [3-((2-tert-butyl-4-chlorophenoxy)methyl)cyclopentanecarboxylic acid] | –
– | < 10 | CC(C)(C)c1cc(Cl)ccc1OCCCCC(=O)Nc1ccc(C(=O)O)cc1 [4-(5-(2-tert-Butyl-4-chlorophenoxy)pentanamido)benzoic acid] | –
1000 | ~15 | CC(C)(C)c1cc(Cl)ccc1OCCCC(=O)O [4-(2-tert-butyl-4-chlorophenoxy)butanoic acid] | –
500 | ~15 | CC(C)(C)c1cc(Cl)ccc1OCCCCCCC(=O)O [7-(2-tert-butyl-4-chlorophenoxy)heptanoic acid] | –
1000 | ~40 | CC(C)(C)c1cc(Cl)ccc1OCCCCCCC(=O)Nc1ccc(O)cc1 [7-(2-tert-butyl-4-chlorophenoxy)-N-(4-hydroxyphenyl)heptanamide] | –
– | – | CC1=C(/C=C/C(C)=C/C=C/C(C)=C/C(=O)Nc2ccc(O)cc2)C(C)(C)CCC1 [HPR, fenretinide] | comparable
1000 | ~50 | CC(C)(C)c1cc(Cl)ccc1OCCCCC(=O)Nc1ccc(O)cc1 [5-(2-tert-Butyl-4-chlorophenoxy)-N-(4-hydroxyphenyl)pentanamide] | –
– | < 10 | CC(C)(C)c1cc(Cl)ccc1OCC1CCC(C(=O)Nc2ccc(C(=O)O)cc2)C1 (centres unmarked) [4-(3-((2-tert-butyl-4-chlorophenoxy)methyl)cyclopentanamido)benzoic acid] | –
1000 | < 10 | CC(C)(C)c1cc(Cl)ccc1OCCCCC(=O)Nc1ccc(CC(=O)O)cc1 [2-(4-(5-(2-tert-butyl-4-chlorophenoxy)pentanamido)phenyl)acetic acid] | –
– | < 10 | CC(C)(C)c1cc(Cl)ccc1OCC1CCC(C(=O)Nc2ccc(O)cc2)C1 (centres unmarked) [3-((2-tert-butyl-4-chlorophenoxy)methyl)-N-(4-hydroxyphenyl)cyclopentanecarboxamide] | –
160 | < 10 | CC(C)(C)c1cc(Cl)ccc1OCC1CCCC(C(=O)O)C1 (centres unmarked) [3-((2-tert-butyl-4-chlorophenoxy)methyl)cyclohexanecarboxylic acid] | –
100 | ≤ 10 | CC(C)(C)c1cc(Cl)ccc1OCCCCC(=O)O [5-(2-tert-Butyl-4-chlorophenoxy)pentanoic Acid] | –
